# Test results reported in ChEMBL document CHEMBL5614401 (Eur J Med Chem, 2024).
# Calls of active or inactive are those of the source. No cut-off for these calls is given here.
# System: Mus musculus
# Assay: (§1) Anti-hyperuricemic activity against potassium oxonate-induced male Kunming mouse model assessed as alleviation of casts formation in kidney at 10 mg/kg, po via gavage administered 1 hr post-potassium oxonate challenge and measured after 7 days on day 7 potassium oxonate injected after 12 hrs fasting and measured followed by 1.5 hrs of compound administration by H and E staining based analysis
# Type: functional, organism-based
# Details: time 7.0 day
row,Structure (SMILES),Activity
1,C/C(=C\Cc1c(O)ccc2c1OC(c1csc3ccccc13)CC2=O)C(=O)O (centres undefined),Active
2,O=C(O)CSc1nnc(Br)n1-c1ccc(C2CC2)c2ccccc12,inactive

# System: Mus musculus
# Assay: as §1, with “reduction” for “alleviation of casts formation”, “serum uric acid level” for “kidney”, “administration” for “administration by H and E staining based analysis”
# Type: functional
# Details: time 7 day
row,Structure (SMILES),Activity
1,C/C(=C\Cc1c(O)ccc2c1OC(c1csc3ccccc13)CC2=O)C(=O)O (centres undefined),392.02 µM
2,O=C(O)CSc1nnc(Br)n1-c1ccc(C2CC2)c2ccccc12,380.14 µM

# System: not listed separately
# Assay: (§2) Renal toxicity in potassium oxonate-induced male Kunming mouse model assessed as effect on kidney damage at 10 mg/kg,po via gavage administered 1 hr post-potassium oxonate challenge and measured after 7 days on day 7 potassium oxonate injected after 12 hrs fasting and measured followed by 1.5 hrs of compound administration
# Type: organism-based
# Details: in vivo, 168 h, time 7 day
row,Structure (SMILES),Activity
1,C/C(=C\Cc1c(O)ccc2c1OC(c1csc3ccccc13)CC2=O)C(=O)O (centres undefined),Non-Toxic
2,O=C(O)CSc1nnc(Br)n1-c1ccc(C2CC2)c2ccccc12,Non-Toxic

# System: Mus musculus
# Assay: as §1, with “renal tubule dilatation” for “casts formation in kidney”
# Type: functional, organism-based
# Details: time 7.0 day
row,Structure (SMILES),Activity
1,C/C(=C\Cc1c(O)ccc2c1OC(c1csc3ccccc13)CC2=O)C(=O)O (centres undefined),Active
2,O=C(O)CSc1nnc(Br)n1-c1ccc(C2CC2)c2ccccc12,inactive

# System: HK-2
# Assay: Cytotoxicity against human HK-2 cells assessed as cell viability at <100 uM incubated for 24 hrs by MTT assay
# Type: toxicity, cell-based
# Details: hk-2, 24 h
row,Structure (SMILES),Activity
1,C/C(=C\Cc1c(O)ccc2c1OC(c1csc3ccccc13)CC2=O)C(=O)O (centres undefined),Toxic

# System: Mus musculus
# Assay: as §1, with “shrinkage” for “casts formation”
# Type: functional, organism-based
# Details: time 7.0 day
row,Structure (SMILES),Activity
1,C/C(=C\Cc1c(O)ccc2c1OC(c1csc3ccccc13)CC2=O)C(=O)O (centres undefined),Active
2,O=C(O)CSc1nnc(Br)n1-c1ccc(C2CC2)c2ccccc12,inactive

# Target: T1, Solute carrier family 2, facilitated glucose transporter member 9 (Homo sapiens, UniProt Q9NRM0)
# T1 sequence (Q9NRM0 whole entry): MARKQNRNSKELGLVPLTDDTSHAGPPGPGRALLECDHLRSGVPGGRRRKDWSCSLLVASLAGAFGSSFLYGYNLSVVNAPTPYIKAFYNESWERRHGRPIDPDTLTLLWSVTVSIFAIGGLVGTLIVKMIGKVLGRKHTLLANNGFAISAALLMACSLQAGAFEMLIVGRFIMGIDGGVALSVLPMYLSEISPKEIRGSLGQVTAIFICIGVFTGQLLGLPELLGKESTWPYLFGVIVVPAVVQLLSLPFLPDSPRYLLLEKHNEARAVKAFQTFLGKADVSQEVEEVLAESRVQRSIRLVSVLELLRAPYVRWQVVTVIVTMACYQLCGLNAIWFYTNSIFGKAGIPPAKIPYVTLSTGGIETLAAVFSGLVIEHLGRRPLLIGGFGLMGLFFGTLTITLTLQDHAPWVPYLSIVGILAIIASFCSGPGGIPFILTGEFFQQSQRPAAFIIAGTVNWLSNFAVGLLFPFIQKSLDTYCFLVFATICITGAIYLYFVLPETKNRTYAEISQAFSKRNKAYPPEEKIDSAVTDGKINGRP
# Assay: Inhibition of GLUT9 (unknown origin) overexpressed in uric acid-induced HEK293 cells by patch clamp analysis
# Type: cell-based
# Details: not given
row,Structure (SMILES),IC50
1,CC(C)=CCc1c(O)ccc2c1OC(c1ccc(O)cc1)CC2=O (centres undefined),1840 nM

# System: Mus musculus
# Assay: as §1, with “increase” for “alleviation of casts formation”, “urine uric acid level” for “kidney”, “(reference value: 481.6 microM)” for “by H and E staining based analysis”
# Type: functional
# Details: time 7 day
row,Structure (SMILES),Activity
1,C/C(=C\Cc1c(O)ccc2c1OC(c1csc3ccccc13)CC2=O)C(=O)O (centres undefined),599.6 µM
2,O=C(O)CSc1nnc(Br)n1-c1ccc(C2CC2)c2ccccc12,696.8 µM

# System: HK-2
# Assay: Cytotoxicity against human HK-2 cells assessed as cell viability at 100 uM incubated for 48 hrs by MTT assay
# Type: toxicity, cell-based
# Details: hk-2, 48 h
row,Structure (SMILES),Activity
1,C/C(=C\Cc1c(O)ccc2c1OC(c1csc3ccccc13)CC2=O)C(=O)O (centres undefined),Non-Toxic

# System: not listed separately
# Assay: MRT (0 to infinity) in male Sprague-Dawley rat at 10 mg/kg, po measured after 24 hrs by LC-MS/MS analysis
# Type: ADME, organism-based
# Details: in vivo
row,Structure (SMILES),MRT inf
1,CC(C)=CCc1c(O)ccc2c1OC(c1ccc(O)cc1)CC2=O (centres undefined),9.16 h

# System: not listed separately
# Assay: AUC (0 to infinity) in male Sprague-Dawley rat at 10 mg/kg, po measured after 24 hrs by LC-MS/MS analysis
# Type: ADME, organism-based
# Details: in vivo
row,Structure (SMILES),AUC(0-inf)
1,CC(C)=CCc1c(O)ccc2c1OC(c1ccc(O)cc1)CC2=O (centres undefined),7460 ng·h/mL

# Target: T2, Solute carrier family 22 member 12 (Homo sapiens, UniProt Q96S37)
# T2 sequence (Q96S37 whole entry): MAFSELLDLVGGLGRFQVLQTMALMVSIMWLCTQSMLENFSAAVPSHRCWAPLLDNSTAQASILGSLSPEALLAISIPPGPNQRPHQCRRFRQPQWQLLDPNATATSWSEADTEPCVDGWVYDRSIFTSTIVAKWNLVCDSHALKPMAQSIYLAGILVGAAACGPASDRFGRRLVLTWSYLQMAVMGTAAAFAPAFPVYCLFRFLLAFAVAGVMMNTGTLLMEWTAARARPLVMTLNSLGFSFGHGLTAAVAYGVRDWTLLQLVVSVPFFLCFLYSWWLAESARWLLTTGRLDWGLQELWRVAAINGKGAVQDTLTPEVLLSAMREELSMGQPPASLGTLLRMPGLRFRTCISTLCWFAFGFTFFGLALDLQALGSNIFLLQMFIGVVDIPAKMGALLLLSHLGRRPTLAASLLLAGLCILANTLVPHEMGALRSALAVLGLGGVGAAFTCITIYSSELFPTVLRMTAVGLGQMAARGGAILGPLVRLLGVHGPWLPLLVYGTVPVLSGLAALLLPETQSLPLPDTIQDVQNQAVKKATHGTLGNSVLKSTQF
# Assay: Inhibition of human URAT1 transfected in HEK293 cells by measuring 14C-uric acid uptake preincubated for 30 mins followed by 14--uric acid addition and measured after 15 mins by liquid scintillation counter analysis
# Type: cell-based
# Details: not given
row,Structure (SMILES),IC50
1,O=C(O)CCCc1c(O)ccc2c1OC(c1cccs1)CC2=O (centres undefined),2410 nM
2,C/C(=C\Cc1c(O)ccc2c1OC(c1ccc(Br)cc1)CC2=O)C(=O)O (centres undefined),830 nM
3,CC(C)=CCc1c(O)ccc2c1OC(c1ccc(O)cc1)CC2=O (centres undefined),240 nM
4,C/C(=C\Cc1c(O)ccc2c1OC(c1csc3ccccc13)CC2=O)C(=O)O (centres undefined),230 nM

# System: not listed separately
# Assay: Half life in male Sprague-Dawley rat at 10 mg/kg, po measured after 24 hrs by LC-MS/MS analysis
# Type: ADME, organism-based
# Details: in vivo
row,Structure (SMILES),half-life
1,CC(C)=CCc1c(O)ccc2c1OC(c1ccc(O)cc1)CC2=O (centres undefined),6.01 h

# Target: T2, Solute carrier family 22 member 12
# Assay: Inhibition of URAT1 (unknown origin)
# Details: not given
row,Structure (SMILES),IC50
1,CC(C)=CCc1c(O)ccc2c1OC(c1ccc(O)cc1)CC2=O (centres undefined),220 nM

# System: not listed separately
# Assay: Tmax in male Sprague-Dawley rat at 10 mg/kg, po measured after 24 hrs by LC-MS/MS analysis
# Type: ADME, organism-based
# Details: in vivo
row,Structure (SMILES),Tmax
1,CC(C)=CCc1c(O)ccc2c1OC(c1ccc(O)cc1)CC2=O (centres undefined),1.12 h

# System: not listed separately
# Assay: Cmax in male Sprague-Dawley rat at 10 mg/kg, po measured after 24 hrs by LC-MS/MS analysis
# Type: ADME, organism-based
# Details: in vivo
row,Structure (SMILES),Cmax
1,CC(C)=CCc1c(O)ccc2c1OC(c1ccc(O)cc1)CC2=O (centres undefined),1110 ng/mL

# Target: T2, Solute carrier family 22 member 12
# Assay: Inhibition of human URAT1 transfected in HEK293 cells by measuring 14C-uric acid uptake at 5 uM preincubated for 30 mins followed by 14--uric acid addition and measured after 15 mins by liquid scintillation counter analysis relative to control
# Type: cell-based
# Details: 0.25 h, time 45 min
row,Structure (SMILES),inhibition at 5 µM
1,CC(C)=CCc1c(O)ccc2c1OC(c1ccc(O)cc1)CC2=O (centres undefined),93.3%

# System: not listed separately
# Assay: as §2, with “reduction in CR level in serum” for “effect on kidney damage”, “administration by biochemical analyzer” for “administration”
# Type: organism-based
# Details: in vivo, 168 h, time 7 day
row,Structure (SMILES),Activity
1,C/C(=C\Cc1c(O)ccc2c1OC(c1csc3ccccc13)CC2=O)C(=O)O (centres undefined),Non-Toxic
2,O=C(O)CSc1nnc(Br)n1-c1ccc(C2CC2)c2ccccc12,Non-Toxic

# Target: T3, Solute carrier family 2, facilitated glucose transporter member 9 (Homo sapiens) (UniProt Q9NRM0)
# T3 sequence (whole entry): T1 sequence (Q9NRM0 whole entry)
# Assay: Inhibition of GLUT9 (unknown origin) overexpressed in uric acid-induced HEK293 cells at 25 uM by patch clamp analysis relative to control
# Type: cell-based
# Details: not given
row,Structure (SMILES),inhibition
1,CC(C)=CCc1c(O)ccc2c1OC(c1ccc(O)cc1)CC2=O (centres undefined),95.5%
2,C/C(=C\Cc1c(O)ccc2c1OC(c1csc3ccccc13)CC2=O)C(=O)O (centres undefined),8.33%

# System: not listed separately
# Assay: as §2, with “reduction in BUN level in serum” for “effect on kidney damage”, “administration by biochemical analyzer” for “administration”
# Type: organism-based
# Details: in vivo, 168 h, time 7 day
row,Structure (SMILES),Activity
1,C/C(=C\Cc1c(O)ccc2c1OC(c1csc3ccccc13)CC2=O)C(=O)O (centres undefined),Non-Toxic
2,O=C(O)CSc1nnc(Br)n1-c1ccc(C2CC2)c2ccccc12,Non-Toxic

# System: Mus musculus
# Assay: as §1, with “glomerular ischemia” for “casts formation”
# Type: functional, organism-based
# Details: time 7.0 day
row,Structure (SMILES),Activity
1,C/C(=C\Cc1c(O)ccc2c1OC(c1csc3ccccc13)CC2=O)C(=O)O (centres undefined),Active
2,O=C(O)CSc1nnc(Br)n1-c1ccc(C2CC2)c2ccccc12,inactive
